Reference: US12268683B2, “Compounds and methods for synergistic activation of M channels” (THE REGENTS OF THE UNIVERSITY OF CALIFORNIA, priority 2018, dated 2025)
Entries after “also recorded” stand apart in the source; their conditions may differ. Like-named read-outs stand apart in the source and are kept apart here.

Target: KCNQ2/3 (Homo sapiens, UniProt O43525+O43526)
Assay: TEVC of heteromeric KCNQ2/3 channels expressed in Xenopus laevis oocytes
Assay type: cell-based
From the text: cRNA transcripts encoding human KCNA1, KCNQ1, KCNQ2, KCNQ3, KCNQ4, or KCNQ5 were generated by in vitro transcription using the T7 polymerase message machine kit (Thermo Fisher Scientific), after vector linearization, from cDNA sub-cloned into plasmids incorporating X. laevis β-globin 5′ and 3′ UTRs flanking the coding region to enhance translation and cRNA stability. cRNA was quantified by spectrophotometry. Mutant cDNAs were generated by site-directed mutagenesis using a QuikChange kit according to manufacturer's protocol (Stratagene, San Diego, Calif.) and corresponding cRNAs prepared as above. Defolliculated stage V and VI X. laevis oocytes (Ecocyte Bioscience, Austin, Tex.) were injected with Kv channel a subunit cRNAs (10 ng total per oocyte). Oocytes were incubated at 16° C. in Barth's saline solution (Ecocyte) containing penicillin and streptomycin, with daily washing, for 3-5 days prior to two-electrode voltage-clamp (TEVC) recording.
TEVC recording was performed at room temperature with an OC-725C amplifier (Warner Instruments, Hamden, Conn.) and pClamp10.2 software (Molecular Devices, Sunnyvale, Calif.) 3-5 days after cRNA injection as described in the section above. Oocytes were placed in a small-volume oocyte bath (Warner) and viewed with a dissection microscope. Chemicals were sourced from Sigma. Bath solution was (in mM): 96 NaCl, 4 KCl, 1 MgCl2, 1 CaCl2. 10 HEPES (pH 7.6). […] MTX (DMSO), sorbic acid (ethanol), and glutaconic acid (molecular grade H2O) were stored at −20° C. as 1 M stocks. Oleamide was stored as a 1 mM stock in ethanol at 4° C. Palmitic acid was conjugated with bovine serum albumin as a 1 mM stock and stored at −20° C. All compounds were diluted to working concentrations each experimental day. All compounds were introduced to the recording bath via gravity perfusion at a constant flow of 1 ml/min for 3 min prior to recording. Pipettes were of 1-2 MΩ resistance when filled with 3 M KCl. Currents were recorded in response to pulses between −80 and +40 mV at 20 mV intervals, or a single pulse to +40 mV, from a holding potential of −80 mV, to yield current-voltage relationships, current magnitude, and for quantifying activation rate. TEVC data analysis was performed with Clampfit10.2 (Molecular Devices) and Graphpad Prism software (GraphPad, San Diego, Calif., USA); values are stated as mean±SEM. Normalized tail currents were plotted versus prepulse voltage and fitted with a single Boltzmann function: […]
cRNA transcripts encoding human KCNQ2, KCNQ3, KCNQ4, KCNQ5 (Kv7.2-Kv7.5) were generated by in vitro transcription using the T7 polymerase mMessage mMachine kit (Thermo Fisher Scientific), after vector linearization, from cDNA sub-cloned into plasmids incorporating Xenopus laevis β-globin 5′ and 3′ UTRs flanking the coding region to enhance translation and cRNA stability. cRNA was quantified by spectrophotometry. Mutant KCNQ2 and KCNQ3 cDNAs were generated with site-directed mutagenesis using a QuikChange kit according to the manufacturer's protocol (Stratagene, San Diego, Calif.) and corresponding cRNAs prepared as above.

Q: For CS(=O)(=O)N(CC(=O)O)c1cccc(F)c1 [3FMSG], which “effect on KCNQ2/3 gating kinetics” value is on record?
A: The value was “speeded KCNQ2/3 activation and slowed its deactivation”.

Q: And the “tau of KCNQ2/3 current decrease during washout” value (100 μM, −60 mV)?
A: Its value is 39 ± 10 s.

Q: And the “tau of KCNQ2/3 current increase during wash-in” value (100 μM, −60 mV)?
A: The value was 15 ± 3 s.

Q: What about the EC50 (Example 4, read-out: EC50, shift in voltage dependence of KCNQ2/3 activation (ΔV0.5act)) of the same compound?
A: Its EC50 is 51 ± 21 nM.

Q: CCCCCCCCC/C=C/C=O [(E)-2-dodecenal] was tested. Which “effect on KCNQ2/3 activity (in words)” value did it give?
A: The value was “activated KCNQ2/3”.

Q: What about the “shift in voltage dependence of KCNQ2/3 activation” value (100 nM) of the same compound?
A: Its value is greater than 10 mV.

Q: What about the EC50 (wild-type KCNQ2/3, read-out: EC50 of KCNQ2/3 activation by (E)-2-dodecenal) of the same compound?
A: The EC50 was 60 ± 20 nM.

Q: CC(=O)c1c(O)c(C)c(O)c(Cc2c(O)c3c(c(C(=O)/C=C/c4ccccc4)c2O)OC(C)(C)C=C3)c1O [MTX, mallotoxin] was tested. Which “effect on KCNQ2/3 gating kinetics” value did it give?
A: Its value is “speeded KCNQ2/3 activation and slowed deactivation”.

Q: And the “effect on KCNQ2/3 at low dose” value (1 μM alone)?
A: The value was “negligible effects”.

Q: What about the “effect on voltage dependence of KCNQ2/3 activation, screen of M. oppositifolius leaf compounds” value (100 μM, MTX and palmitic acid 30 μM) of the same compound?
A: The value was “negative-shifted”.

Q: And the “effect on KCNQ2/3 at +40 mV” value (+40 mV)?
A: Its value is “little effect”.

Q: What about the “relative ion permeability of KCNQ2/3 compared to K+” value (MTX 30 μM, 100 mM ion) of the same compound?
A: The value was “increased relative permeability of KCNQ2/3 to Na^+ and Cs^+, and decreased permeability to Rb^+”.

Q: And the “shift of V0.5 of KCNQ2/3 activation (ΔV0.5)” value (RTG 10 μM, MTX 30 μM, IVA 500 μM, alone or in combination)?
A: Its value is −17 mV.

Q: What about the EC50 (current at −60 mV, read-out: EC50 of KCNQ2/3 activation) of the same compound?
A: The EC50 was 11500 nM.

Q: What about the “time to plateau of KCNQ2/3 activation on wash-in” value (−60 mV) of the same compound?
A: The value was 5 min.

Q: What about the KCNQ2/3 current fold-increase (−60 mV, 100 μM MTX) of the same compound?
A: The KCNQ2/3 current fold-increase was “seven-fold”.

Q: And the KCNQ2/3 current fold-increase (−60 mV, MTX 30 μM, IVA 500 μM alone or in combination)?
A: The KCNQ2/3 current fold-increase was “fivefold”.

Q: Which “effect on KCNQ2/3 activity (in words)” value does the source give for NCC1(CC(=O)O)CCCCC1 [gabapentin, reference compound] here?
A: Its value is “potently activated”.

Q: What about the “effect on KCNQ2/3 gating kinetics” value of the same compound?
A: Its value is “speeded KCNQ2/3 activation and slowed deactivation”.

Q: What about the “potency on KCNQ2/3, fold more potent than GABA” value of the same compound?
A: Its value is 200 fold.

Q: And the “shift in voltage dependence of KCNQ2/3 activation” value (1 μM gabapentin)?
A: Its value is −9 mV.

Q: And the “washout of effect on KCNQ2/3” value (after 2 minutes)?
A: The value was less than 50%.

Q: And the EC50 (current at −60 mV, read-out: EC50 for KCNQ2/3 activation)?
A: The EC50 was 4.2 nM.

Q: And the “shift of membrane potential (EM) of KCNQ2/3-expressing oocytes” value (unclamped oocytes)?
A: Its value is greater than −10 mV.

Q: What about the “time to plateau of KCNQ2/3 current augmentation on wash-in” value (−60 mV) of the same compound?
A: Its value is roughly 2 min.

Q: And the KCNQ2/3 current fold-increase (−60 mV, 10 nM)?
A: The KCNQ2/3 current fold-increase was 3.5 fold.

Q: How did the “effect on KCNQ2/3 activity (in words)” value turn out when NCC(=O)O [glycine, reference compound] was run?
A: Its value is “nor does it activate KCNQ2/3; also recorded: no effect”.
